Data published in patent publication US5264423A, “Inhibitors for replication of retroviruses and for the expression of oncogene products” (The United States of America as represented by the …, priority 1992, dated 1993).
“Also recorded” adds a separate entry of the source.

Legend:
[1] = tested on: HIV p24 gag protein in chronically HIV-infected H9 cells; test: HIV gag protein expression in chronically HIV-infected H9 cells, indirect immunofluorescence; type: cell-based
Description: The percentage of cells expressing p24 gag protein of HIV was determined by indirect immunofluorescence microscopy by using anti-HIV p24 murine monoclonal antibody.
Generally, it has been assumed that anti-sense sequences inhibit the expression of various genes by translation arrest, i.e. that they bind to MRNA and block its translation. In order to test this possibility, gag protein synthesis was analyzed in chronically HIV-infected and -producing H9 cells by indirect immunofluorescent assay under a microscope. […] Alternatively, the level of any translation arrest could have been below the threshold of detection by indirect immunofluorescent assay under a microscope. […] Therefore, one mechanism for the antiviral effect could depend on blocking viral replication perhaps prior to, or at the stage of, pro-viral DNA synthesis.

[2] = tested on: H9 cells; test: Cell uptake of 35S-phosphorothioate end-labelled oligomer, H9 cells; type: in vitro ADME; conditions: within several minutes
Description: (§1) Phosphatase-resistant 35S-phosphorothioate end-labelled S-dC28 was employed to investigate the permeability of target cells.

[3] = tested on: T4, HLA-DR, T8, T3, or Tac antigen on the cell surface of ATH8 cells; test: Cell surface antigens by fluorescent-activated cytofluorometry; type: cell-based; conditions: 1 micromole (printed i), sixteen hours
Description: (§2) The possibility that the S-ODN analogs may interfere with HIV binding to target cells was tested.

[4] = tested on: HIV (HTLV-IIIB) in ATH8 cells; test: HIV cytopathic effect inhibition (viable ATH8 cells, trypan blue)
Description: FIGS. 1A-1D and Table 1, The target cells (2×10^5 ATH8 cells) in each tube were pretreated with the stated concentration of each oligomer for 16 hours and then incubated with Polybrene for 45 minutes. After centrifugation, each set of pelleted cells was exposed to HIV (500 virions per cell, which is a much higher dose than the minimal cytopathic dose) and incubated for one hour. Complete media (2 ml RPMI1640) supplemented with L-glutamine (4 mti), 2-mercaptoethanol ([…]), penicillin (50 unit/ml), and streptomycin (50 micrograms/ml), and containing 15% fetal calf serum and IL-2 (15% of conventional IL-2 from Advanced Biotechnologies, Inc., Silver Spring, MD, plus 20 unit/ml of recombinant IL-2 from Amgen Biochemicals, Thousand Oaks, CA) with the various concentrations of oligomers added. The number of viable cells were counted in a hemocytometer using the trypan blue exclusion method for day 7 following exposure to the virus. Filled columns represent non-virus exposed cells, and dotted columns represent virus exposed cells.
The HIV cytopathic effect inhibition with oligodeoxynucleotides was performed with 18 hours of pretreatment of 2×10^5 target cells (ATH8 cells) with oligos prior to exposure to HTLV-IIIB. After this pretreatment, target cells were treated with Polybrene (2 micrograms/ml) for one hour. The target cells were then, respectively, exposed to HTLV-IIIB virus (generally 500 virions per cell in this series of experiments) for one hour. The 2×10^5 cells were then diluted to 2 ml with complete media containing IL-2 and various concentrations of oligos.
The number of viable cells was counted in a hemocytometer using the trypan blue exclusion method on day 7 following exposure to the virus. Each set of data were obtained from simultaneously performed experiments so as to make a precise comparison among agents tested.
The target cells (2×10^5 ATH8 cells per tube) were preincubated with the stated concentrations of S-dC14 for 24 hours and pretreated with 2 micrograms/ml of Polybrene for 45 minutes. After centrifugation, pelleted cells were exposed to the HIV (1000 virions per cell) for one hour. The cells were incubated in 2 ml of complete media containing IL-2, and the viable cells were counted on day 13.
On day 13 after the exposure to the virus, viable cells were counted by the trypan blue dye exclusion method.

[5] = tested on: exo- and endonuclease P1; test: Nuclease susceptibility, P1 nuclease; type: in vitro ADME
Description: (§3) Several oligodeoxynucleotides were studied with regard to DNase sensitivity, cf. Table 5. These include cytidine homopolymers, ODN-4 (an anti-message 28-mer complementary to the 3' region of the art/trs region of HIV BH10 clone), and myc-1 (a 15-mer complementary to the initiation codon region of the C-myc oncogene). The DNases employed were predominantly endonuclease S1, the exo- and endonuclease P1, and snake venom (SV) phosphodiesterase. The concentration of S1 nuclease was ten-fold higher (100 micromoles/ml) for reactions of oligo-dc, since both the normal and PS analog were degraded extremely slowly be this enzyme. S1 and P1 nuclease digestion proceeded at 2-45 times more slowly for the S-ODNs than for the normal oligomers, with the […] being somewhat more readily digested than the 28-mer.

[6] = tested on: de novo HIV DNA synthesis in ATH8 cells; test: Southern blot of de novo HIV DNA synthesis; type: cell-based; conditions: days 4 and 7
Description: Target cells (1×10^7 ATH8 cells) were pretreated with or without S-dC28 at various concentrations for sixteen hours, then treated with Polynrene, exposed to HIV (500 virus particles per cell), resuspended, and cultured in the presence or absence of S-dC28. On days 4 and 7 following the exposure to the virus, high molecular weight DNA was extracted, digested with Asp718 (a Kpn I isoschizomer from Boehringer-tiannheim, Indianapolis, IN), and subjected to Southern blot analysis hybridized with a labelled insert of molecular clone of the env region of HTLV-III (BH10) containing a 1.3 Kb Bgl II fragment.
FIGS. 6A-6D show the inhibitor effect of the phosphorothioate oligodeoxycytidine analog (S-dC28) on de novo HIV DNA synthesis in target cells. On days 4 and 7 following the exposure to the virus, a substantial amount of viral DNA was detected by Southern blot analysis without antiviral agents.
On day 4, shown in lanes A-E, and day 7, shown in lanes F-J, following exposure to the virus, high molecular weight DNA was extracted. Lanes A and F contain DNA from ATH8 cells that were exposed to the virus and not protected by S-dC28. Lanes B and G, C and H, D and I, contain DNA from ATH8 cells pretreated and cultured with 1 micromole, 5 micromoles, and 7 micromoles S-dC28, respectively. Lanes E and J contain DNA from ATH8 cells treated with 50 micromoles 2', 3'-dideoxyadenonsine, and lane K contains DNA from ATH8 cells that was not exposed to the virus.

[7] = Solubility; type: physicochemical; conditions: acetate salts
Description: The phosphorothioate oligodeoxynucleotides of the present invention have suitable chemical characteristics, namely, the ability to hybridize with complementary DNA/MRNA under physiological conditions, and better solubility properties relative to methylphosphonates. Moreover, the thioesters are as soluble in biological media as the parent compounds.
Oligodeoxynucleotides with blocks of phosphorothioates at the 3' or 5' ends were synthesized by automatically changing the oxidation cycle at the required point. […] Introduction of a small amount of ammonia vapor, not aqueous ammonia, by a Pasteur PiPette solubilized all the solids. The yield determined from absorbance at lambda max was about 30%.

[8] = tested on: T4 molecule in T4 cells (H9 cells); test: Specific binding of radiolabelled HIV to T4 molecule
Description: as §2

[9] = tested on: endonuclease S1; test: Nuclease susceptibility, S1 nuclease; type: in vitro ADME
Description: as §3

[10] = tested on: snake venom (SV) phosphodiesterase; test: Nuclease susceptibility, snake venom phosphodiesterase; type: in vitro ADME
Description: as §3

[11] = tested on: ATH8 cells (printed AT[18); test: Cell uptake of 35S-phosphorothioate end-labelled oligomer, ATH8 cells; type: in vitro ADME; conditions: within several minutes
Description: as §1

[12] = tested on: HL60 cells; test: HL60 cell growth (cell count); type: cell-based
[13] = tested on: c-myc protein in HL60 cells; test: c-myc protein reduction; type: cell-based
[14] = tested on: HL60 cells; test: DNA synthesis (3H-thymidine incorporation) in HL60 cells; type: cell-based; conditions: 50 uM, day 1
Description: To obtain the results shown in FIG. 4, nonsense or antisense S-ODNs were added at a final concentration of 50 uM on day 0 to cells seeded at 3×10^5/ml. DNA synthesis was determined on day 1 by incubating cells with 1 uCi 3H-thymidine for 4 hours, after which time 10% trichloroacetic acid was added and acid precipitatable radioactivity was trapped on Sihatman glass fiber filters. The filters were subjected to liquid scintillation counting to determine levels of radioactivity.

(dC)n n = 28 [S-dC28]
Percentage of gag positive cells ([1]; 5 micro M, 8 hours in culture): 82%
Percentage of gag positive cells ([1]; 5 micro M, 24 hours in culture): 91%
Percentage of gag positive cells ([1]; 5 micro M, 72 hours in culture): 85%
Percentage of gag positive cells ([1]; 5 micro M, 120 hours in culture): 79%
Percentage of gag positive cells ([1]; 10 micro M, 8 hours in culture): 74%
Percentage of gag positive cells ([1]; 10 micro M, 24 hours in culture): 80%
Percentage of gag positive cells ([1]; 10 micro M, 72 hours in culture): 71%
Percentage of gag positive cells ([1]; 10 micro M, 120 hours in culture): 82%
Percentage of gag positive cells ([1]; 25 micro M, 8 hours in culture): 69%
Percentage of gag positive cells ([1]; 25 micro M, 24 hours in culture): 86%
Percentage of gag positive cells ([1]; 25 micro M, 72 hours in culture): 75%
Percentage of gag positive cells ([1]; 25 micro M, 120 hours in culture): 74%
gag protein positivity ([1]; concentrations as high as 25 micromoles, 120 hours): failed to reduce gag protein positivity; also recorded: did not inhibit gag protein positivity
uptake (increase of radioactivity) [2]: Significant increases of radioactivity
changes in T4, HLA-DR, T8, T3, or Tac antigen [3]: no detectable changes
protection against the virus / antiviral activity ([4]; 0.5 micromoles): complete protection against the virus; also recorded: complete antiviral activity; also recorded: potent antiHIV activity
inhibition of viral replication and protection of ATH8 cells from HIV ([4]; 3 micromoles, day 7): 100%
in vitro therapeutic index (ratio of cytotoxic to effective concentration) ([4]; compared with dideoxycytidine and dideoxyadenosine): comparable in vitro index to those of dideoxycytidine and dideoxyadenosine
anti-HIV activity (cytopathic effect) ([4]; in words): most consistent and durable antiviral effects
Ratio = t1/2 PSoligo/t1/2 POoligo [5]: 15
2.7 Kb env-containing KPN I viral DNA fragment detection ([6]; 1, 5 and 7 micromoles, lanes B-D, G-I): detected only in lanes A and F
inhibition of de novo synthesis of viral DNA ([6]; concentrations as low as / down to 1 micromolar): significantly inhibited the de novo synthesis of viral DNA; also recorded: complete inhibition
solubility in 1 M NaCl [7]: extremely insoluble in 1 M NaCl
inhibition of specific binding of labelled virus to T4 [8]: No inhibition
Ratio = t1/2 PSoligo/t1/2 POoligo [9]: 2
Nuclease susceptibility, t1/2 [10]: > 27.7778 h
Ratio = t1/2 PSoligo/t1/2 POoligo [10]: > 1400
uptake (increase of radioactivity) [11]: Significant increases of radioactivity

dAACGTTGAGGGGCAT [S-myc-1]
Ratio = t1/2 PSoligo/t1/2 POoligo [5]: 4
concentration relative to that required for the normal oligomer [12]: less than 1%
duration of antiproliferative effects [12]: up to three days
growth inhibition of HL60 cells at 0.1 micro M ([12]; 0.1 micro M): effective
effect on HL60 cell proliferation ([12]; in words): significant inhibition of cell proliferation
Nuclease susceptibility, t1/2 [9]: 5.5 min
Ratio = t1/2 PSoligo/t1/2 POoligo [9]: 9
Ratio = t1/2 PSoligo/t1/2 POoligo [10]: 443
reduction of c-myc protein [13]: reduction of c-myc protein
inhibition of DNA synthesis (3H-thymidine incorporation) [14]: significant inhibition
